Test results as given in patent US10889553B2, “Asymmetric triazole benzamide derivatives and the compositions and methods of treatment regarding the same” (NysnoBio Ireland DAC, priority 2017, dated 2021).
pIC50: −log10 of the molar value. Where two headings read alike, the source gives them in different places.

Tests used:
TOV-21G (ovarian) = test: Cancer cell proliferation assay (acid phosphatase); type: cell-based; details: Homo sapiens, TOV21G; for pIC50: Table 6A, 72 hrs, read-out: TOV-21G IC50
Method in brief: (§1)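 Growth inhibition is expressed as a percentage of DMSO-treated control cells, using absorbance at 405 nm corrected at 620 nm after acid phosphatase conversion of p-nitrophenol phosphate. Compound exposure lasts 72 hrs at 37° C. following overnight attachment.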

LS-174T (colon) = test: Cancer cell proliferation assay (acid phosphatase); type: cell-based; details: Homo sapiens, LS174T; Table 6A; 72 hrs
Method in brief: as §1

A549 (lung) = test: Cancer cell proliferation assay (acid phosphatase); type: cell-based; details: Homo sapiens; for pIC50: Table 6A, 72 hrs, read-out: A549 IC50
Method in brief: as §1

[1] = Microsomal stability assay, rat liver microsomes; type: in vitro ADME; details: pH 7.4; rat liver microsomes 1.0 mg/mL, 1 μM compound, NADPH; read-out: RLM t1/2
Experimental: (§2) Compounds were also tested for metabolic stability in both rat liver microsomes (RLM) and the compounds are tested for human liver microsomes (HLM) and their half-life is calculated (See Tables 5A and 5B). The assay was performed as follows. The total volume for each incubation was 250 μL. A 100 μM DMSO solution of compound (diluted from 10 mM stock solution) was spiked into 50 mM KH2PO4 (pH 7.4) buffer containing liver microsome at a concentration of 1.0 mg/mL. The reaction was initiated by the addition of 50 μL of 1 mM NADPH. The final concentration of each compound was 1 μM (1% DMSO). The positive controls, phenacetin for CYP1A2, diclofenac for CYP2C9, omeprazole for CYP2C19, dextromethorphan for CYP2D6 and midazolam for CYP3A4 were added to a separate tube with the final substrate concentrations of 1 μM (1% DMSO) for evaluating the enzyme activities in the liver microsomes. At 0, 15, 30 and 60 min, an aliquot of 15 μL reaction mixtures were removed and 200 μL of methanol (with internal standard of 25 ng/mL propranolol) was added to quench the reaction. The resulting mixture was centrifuged and supernatant was used for LC-MS/MS analysis.
(§3) The signals for each compound, or the metabolites for the probe substrates and the internal standard were integrated and the peak area ratios to internal standard were generated. Percent parent remaining at a specified timepoint was calculated based on the peak area ratios at time 0 (as 100%) for in vitro metabolic stability studies in liver microsome and hepatocyte. The observed rate constant (kobs) for the metabolism of substrates was calculated by plotting the natural log of percentage substrate remaining versus time of incubation with the slope being kobs. The half-life (T1/2) was calculated according to the following equation: T1/2=[…]

[2] = Microsomal stability assay, human liver microsomes; type: in vitro ADME; details: pH 7.4; human liver microsomes 1.0 mg/mL, 1 μM compound, NADPH; read-out: HLM t1/2
Experimental: as §2, §3

Calu-6 (lung) = test: Cancer cell proliferation assay (acid phosphatase); type: cell-based; details: Homo sapiens, Table 6A, 72 hrs, read-out: Calu6 IC50
Method in brief: as §1

HCT-116 (colon) = test: Cancer cell proliferation assay (acid phosphatase); type: cell-based; details: Homo sapiens; for pIC50: Table 6A, 72 hrs, read-out: HCT-116 IC50
Method in brief: as §1

[3] = system: subcutaneous HCT-116 (colon cancer) xenograft; test: In vivo cancer xenograft assay; details: 5 mg/kg daily IP, up to 26 days, HCT-116 xenograft in nude mice (FIG. 1)
Experimental: Each mouse was inoculated subcutaneously at the flank region with either HCT-116 cells (1.0×106) in 0.1 ml of 1×PBS mixed with Matrigel (1:1) for tumor development and xenotransplantation.
The vehicle with or without drug is administered to the mouse by intraperitoneal injection. The formulation with respective drug is as follows: • 10% —DMA: N,N-Dimethyl acetamide • 15% —Solutol HS 15: Macrogol 15 Hydroxy Stearate, Polyethylene glycol-15-hydroxystrerate; and 75%-20% aqueous HP-β-CD: Hydroxypropyl-beta-cyclodextrin
Before grouping and treatment, all animals were weighed and the tumor volumes were confirmed (approx. 120-150 mm^3) using electronic caliper. Since the tumor volume can affect the effectiveness of any given treatment, mice were assigned into groups using randomized block design as following: First, the experimental animals were divided into homogeneous blocks based on their tumor volume. […]
After tumor cells were inoculated, the animals were checked daily for morbidity and mortality. […] Death and observed clinical signs were recorded. Tumor volumes were measured every three days in two dimensions using an electronic caliper, and the volume data were expressed in mm^3 using the formula: V=0.5 a×b2 where a and b are the long and short diameters of the tumor, respectively. Tumor volume average is then recorded for each day for groups 1-4 until day 26.

CYP2C9 = CYP2C9 (Homo sapiens, UniProt P11712); test: CYP inhibition assay; type: in vitro ADME; details: read-out: % Inhibition at 30 μM CYP 2C9
CYP2C9, sequence (P11712 whole entry): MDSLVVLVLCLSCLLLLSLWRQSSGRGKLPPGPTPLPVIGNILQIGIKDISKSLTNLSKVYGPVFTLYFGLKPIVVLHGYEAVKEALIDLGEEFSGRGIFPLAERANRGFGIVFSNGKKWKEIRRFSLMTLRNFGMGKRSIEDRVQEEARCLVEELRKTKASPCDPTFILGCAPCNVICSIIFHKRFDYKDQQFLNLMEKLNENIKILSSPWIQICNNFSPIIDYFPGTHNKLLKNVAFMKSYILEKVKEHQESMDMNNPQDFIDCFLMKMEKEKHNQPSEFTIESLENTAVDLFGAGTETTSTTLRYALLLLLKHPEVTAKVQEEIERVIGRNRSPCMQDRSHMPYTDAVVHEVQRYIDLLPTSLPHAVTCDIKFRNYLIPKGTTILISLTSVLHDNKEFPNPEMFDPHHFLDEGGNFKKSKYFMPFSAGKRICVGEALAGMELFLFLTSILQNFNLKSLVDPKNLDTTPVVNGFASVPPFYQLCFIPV

Row | SMILES | pIC50 (TOV-21G (ovarian); 72 h) | pIC50 (LS-174T (colon)) | pIC50 (A549 (lung); A549, 72 h) | half-life at 1 μM [1] | pIC50 (Calu-6 (lung)) | other results
1 | O=C(Nc1nc(NC(=O)c2ccccn2)n(-c2ccccc2)n1)c1ccccn1 [Compound 41] | < 5.60 | 5.60 | 5.60 | 0.283 h |  | 
2 | Cc1ccccc1C(=O)Nc1nc(NC(=O)c2ccccc2C)n(-c2ccccc2F)n1 [Compound 32] | < 5.60 | < 5.60 | < 5.60 | 3.4 h |  | 
3 | Cc1ccccc1C(=O)Nc1nc(NC(=O)c2ccccc2C)n(-c2ccc(F)c(F)c2)n1 [Compound 24] | 6.01 | 6.03 | 6.55 | 2.18 h | 6.54 | half-life at 1 μM [2]: 3.4 h
4 | Cc1ccccc1C(=O)Nc1nc(NC(=O)c2ccccc2C)n(-c2ccc(N3CCCCC3)cc2)n1 [Compound 44] | 5.72 | 5.60 | 5.70 | 0.1 h | < 5.60 | 
5 | Cc1ccccc1C(=O)Nc1nc(NC(=O)c2ccccc2C)n(-c2ccc(C#N)cc2)n1 [Compound 35] | 5.85 | 5.64 | 5.62 | 3.3 h |  | 
6 | Cc1ccccc1C(=O)Nc1nc(NC(=O)c2ccncc2)nn1-c1ccccc1 [Compound 34] | 5.82 | 5.59 | 5.60 | 5.5 h |  | 
7 | O=C(Nc1nc(NC(=O)c2cccnc2)n(-c2ccccc2)n1)c1cccnc1 [Compound 40] | < 5.60 | < 5.60 |  | > 8.33 h |  | 
8 | Cc1ccccc1C(=O)Nc1nc(NC(=O)c2ccccc2C)n(-c2ccc(C(F)(F)F)cc2)n1 [Compound 25] | > 7.00 | > 6.70 | 7.40 | 6.8 h | 6.37 | half-life at 1 μM [2]: 1.18 h; pIC50 (HCT-116 (colon); HCT-116, 72 h): 6.92
9 | Cc1ccccc1C(=O)Nc1nc(NCc2ccccc2)nn1-c1ccc(C(F)(F)F)cc1 [Compound 102] | < 5.60 |  | < 5.60 | 0.167 h |  | pIC50 (HCT-116 (colon); HCT-116, 72 h): 5.60
10 | Cc1ccccc1C(=O)Nc1nc(NC(=O)c2ccccc2C)n(-c2ccc(OC(F)(F)F)cc2)n1 [Compound 42, N,N′-(1-(4-(trifluoromethoxy)phenyl)-1H-1,2,4-triazole-3,5-diyl)bis(2-methylbenzamide)] |  | 6.70 |  | 3.85 h | 7.22 | reduced tumor size [3]: greater than 50%; half-life at 1 μM [2]: > 8.33 h; inhibition at 30 μM (CYP2C9): 11.8%; pIC50 (TOV-21G (ovarian)): 6.60; IC50 (TOV-21G (ovarian); Table 6C, data of FIG. 2, read-out: IC50 (μM) TOV-21G (ovarian)): 0.15 µM; EC50 (TOV-21G (ovarian); Table 6D, another set of cell proliferation assay): 74 nM; IC50 (TOV-21G (ovarian); Table 6E, read-out: Proliferation IC50 (nM) Ovarian TOV21G): 0.109 µM; pIC50 (HCT-116 (colon); HCT-116): 7.15; IC50 (HCT-116 (colon); HCT-116, Table 6C, data of FIG. 2, read-out: IC50 (μM) HCT-116 (colon)): 0.08 µM; EC50 (HCT-116 (colon); HCT-116, Table 6D, another set of cell proliferation assay): 87 nM; IC50 (HCT-116 (colon); HCT-116, Table 6E, read-out: Proliferation IC50 (nM) CRC HCT-116): 0.087 µM; pIC50 (A549 (lung); A549): 7.52; IC50 (A549 (lung); A549, Table 6C, data of FIG. 2, read-out: IC50 (μM) A549 (lung)): 65 µM; EC50 (A549 (lung); A549, Table 6D, another set of cell proliferation assay): 72 nM
11 | COc1ccc(C(=O)Nc2nc(NC(=O)c3ccc(OC)cc3)n(-c3ccccc3)n2)cc1 [Compound 37] | 5.72 | 5.62 | 5.64 | 0.35 h |  | 
12 | Cc1ccccc1C(=O)Nc1nc(NC(=O)c2ccccc2C)n(-c2cccc(Cl)c2)n1 [Compound 36] | 6.52 | 5.89 | 6.66 | 1.05 h | 6.77 | half-life at 1 μM [2]: 2.45 h
13 | O=C(Nc1nc(NC(=O)c2ccncc2)n(-c2ccccc2)n1)c1ccncc1 [Compound 33] | < 5.60 |  | < 5.60 | 3.3 h |  | 
14 | Cc1ccnc(-c2nc(NC(=O)c3ccccc3C)n(-c3ccccc3)n2)c1 [Compound 124] | 6.23 |  | 5.92 | 0.717 h | 5.85 | 
15 | Cc1ccccc1C(=O)Nc1nc(NC(=O)c2ccccc2C)n(-c2cccc(F)c2)n1 [Compound 39] | 5.82 | 5.68 | 5.92 | 2.22 h | 5.60 | 
16 | Cc1ccccc1C(=O)Nc1nc(NC(=O)c2cccnc2)nn1-c1ccccc1 [Compound 6] | 5.92 |  |  | 0.0833 h |  | 
17 | Cc1cccc(-n2nc(NC(=O)c3ccccc3C)nc2NC(=O)c2ccccc2C)c1 [Compound 38] | 5.77 | 5.64 | 5.68 | 0.433 h | 5.59 | 
18 | Cc1ccccc1C(=O)Nc1nc(NC(=O)C2CCCN2)nn1-c1ccccc1 (stereo not drawn) [Compound 20] | < 6.00 | < 6.00 |  | 2.45 h |  | 
19 | Cc1ccccc1C(=O)Nc1nc(NC(=O)c2ccccn2)nn1-c1ccccc1 [Compound 16] | 5.64 |  | 5.59 | 2.35 h |  | 
20 | C#Cc1ccc(C(=O)Nc2nc(NC(=O)c3cccc(N=[N+]=[N-])c3)n(-c3ccccc3)n2)cc1 [Compound 2] | 5.66 |  | 5.66 | 0.683 h |  | pIC50 (HCT-116 (colon); HCT-116, 72 h): 3.19
21 | Cc1ccccc1C(=O)Nc1nc(NC(=O)c2ccno2)n(-c2ccccc2)n1 [Compound 7] | < 6.00 |  |  | 3.98 h |  | 
22 | Cc1ccccc1C(=O)Nc1nc(NC(=O)c2ccccc2C)n(-c2ccc(F)cc2F)n1 [Compound 46] | 5.62 | 5.60 | 5.60 | 1.62 h |  | 
23 | Cc1ccccc1C(=O)Nc1nc(NC(=O)c2cnccn2)n(-c2ccccc2)n1 [Compound 17] | < 6.00 |  |  | 0.433 h |  | 
24 | Cc1ccc(-n2nc(NC(=O)c3ccccc3C)nc2NC(=O)c2ccccc2C)cc1 [Compound 31] | 5.64 | < 5.60 | 5.60 | 0.233 h |  | 
25 | Cc1ccccc1C(=O)Nc1nc(NC(=O)c2ccccc2C)n(-c2ccccc2Cl)n1 [Compound 26] | 5.68 | < 6.00 | 5.60 | 0.967 h |  | 
26 | Cc1ccc(C(=O)Nc2nc(NC(=O)c3ccc(C)cc3)n(-c3ccccc3)n2)cc1 [Compound 21] | 5.60 | < 5.60 | 5.60 | 0.1 h | < 5.60 | 
27 | COc1ccccc1C(=O)Nc1nc(NC(=O)c2ccccc2OC)n(-c2ccccc2)n1 [Compound 23] | 5.62 | < 5.60 | < 5.60 | 0.35 h | < 5.60 | 
